Laboratory results reported in article PMC7501296, “Rapid and direct control of target protein levels with VHL-recruiting dTAG molecules” (Nature Communications, 2020).
Several values for one entry are separate records, joined by “and”; a condition that tells them apart may be missing. Identical values can stand only once.

Tests used:
FKBP12^F36V-Nluc = target: T1, FKBP12^F36V-Nluc (Homo sapiens, UniProt P62942, F37V); test: FKBP12F36V-Nluc dual luciferase assay (293FT); assay type: cell-based; details: 24 h; for DMSO-normalized ratio of Nluc/Fluc signal: 293FT FKBP12F36V-Nluc
T1 construct: expressed in transfected cells; host or cells: 293FT
How it was run: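 293FT cells expressing FKBP12^WT-Nluc or FKBP12^F36V-Nluc with Fluc were treated with compound for 24 h at 37 °C. Fluc, then Nluc, luminescence was read with Dual-Glo reagents. Values are DMSO-normalised Nluc/Fluc ratios.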

[1] = system: PATU-8902 LACZ-FKBP12^F36V clone; test: Quantitative MS proteomics, PATU-8902 LACZ-FKBP12F36V clone; assay type: cell-based, Homo sapiens; details: for TMT intensity per TMT channel: PATU-8902 LACZ-FKBP12F36V samples, biological replicates; for log2 (Fold change) compared to DMSO: 500 nM, 4 h
Protocol: Cell pellets from PATU-8902 and EWS502 cells were lysed using 8 M urea, 200 mM 4-(2-hydroxyethyl)-1-piperazinepropanesulfonic acid (EPPS) at pH 8.5 with protease inhibitors. Samples were further homogenized and DNA was sheered via sonication using a probe sonicator (20 × 0.5 s pulses; level 3). Total protein was determined using a BCA assay and stored at −80 °C until future use. A total of 100 µg of protein was aliquoted for each condition and TMT channel for further downstream processing. Protein extracts were reduced using 10 mM dithiothreitol (DTT) for 30 min at room temperature. Next, samples were alkylated with 20 mM iodoacetamide for 45 min in the dark at room temperature. To facilitate the removal of incompatible reagents, proteins were precipitated using chloroform methanol. Briefly, to 100 µL of each sample, 400 µL of methanol was added, followed by 100 µL of chloroform with thorough vortexing. Next, 300 µL of HPLC grade water was added and samples were vortexed thoroughly. Each sample was centrifuged at 14,000 × g for 5 min at room temperature. The upper aqueous layer was removed and the protein pellet was washed twice with methanol and centrifuged at 14,000 × g for 5 min at room temperature. Protein pellets were resolubilized in 200 mM EPPS buffer and digested overnight with Lys-C (1:100, enzyme:protein ratio) at room temperature. The next day, trypsin (1:100 ratio) was added and incubated at 37 °C for an additional 6 h in a ThermoMixer set to 1000 RPM.
To each digested sample, 30% anhydrous acetonitrile was added and 100 µg of peptides were labeled using 200 µg of TMT reagent (TMT1-TMT11). Following labeling, a 5% hydroxylamine solution was used to quench excess TMT reagent. To equalize protein loading, a ratio check was performed by pooling 2 µg of each TMT-labeled sample. Samples were pooled and desalted using in-house packed C18 StageTips and analyzed by LC-MS/MS. Normalization factors were calculated from this label check, samples were mixed 1:1 across all TMT channels and desalted using a 100 mg Sep-Pak solid phase extraction cartridge. Eluted pooled peptides were further fractionated with basic-pH reverse-phase (bRP) HPLC using an Agilent 300 extend C18 column and collected into a 96 deep-well plate. Samples were consolidated into 24 fractions, and 12 nonadjacent fraction were desalted using StageTips prior to analyses using LC-MS/MS[35]–[37].
All mass spectrometry data was acquired using an Orbitrap Fusion mass spectrometer in-line with a Proxeon NanoLC-1000 UHPLC system. Peptides were separated using an in-house 100 µm capillary column packed with 40 cm of Accucore 150 resin (2.6 µm, 150 Å) (Thermo Fisher Scientific) using a 180 min LC gradient per fraction. Eluted peptides were acquired using synchronous precursor selection (SPS-MS3) method for TMT quantification. Briefly, MS1 spectra were acquired at 120 K resolving power with a maximum of 50 ms in the Orbitrap. MS2 spectra were acquired by selecting the top ten most abundant features via collisional induced dissociation (CID) in the ion trap using an automatic gain control (AGC) of 15 K, quadrupole isolation width of 0.7 m/z and a maximum ion time of 100 ms. For MS3 acquisition, a synchronous precursor selection of ten fragment ions was acquired with an AGC of 150 K for 150 ms and a normalized collision energy of 55.
All acquired raw data were converted to mzXML using Raw File Reader (v3.0.77). Spectra were processed using Comet (2019.01.5)[39]–[41], search results were filtered using the LDA function MASS Package in R, and data were processed using an in-house informatics pipeline[42]–[44]. Custom code was not developed in this study. Briefly, peptide spectral libraries were first filtered to a peptide false discovery rate (FDR) of less than 1% using linear discriminant analysis employing a target decoy strategy. […]

[2] = system: PATU-8902 LACZ-FKBP12^F36V clone; test: Antiproliferation, PATU-8902 LACZ-FKBP12F36V clone, 2D-monolayer (CellTiter-Glo); assay type: cell-based
How it was run: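 Viability of cells grown as 2D-adherent monolayers was determined with the CellTiter-Glo luminescent reagent (Promega). Luminescence signals were read on either an Envision 2104 plate reader (PerkinElmer) or a Fluostar Omega Reader (BMG Labtech), and the resulting data were processed and analyzed in GraphPad PRISM v8 software.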

[3] = log10[compound] (M) -5.69897, replicate values
[4] = log10[compound] (M) -6.19897, replicate values
[5] = log10[compound] (M) -6.69897, replicate values
[6] = log10[compound] (M) -7.19897, replicate values
[7] = log10[compound] (M) -7.69897, replicate values
[8] = log10[compound] (M) -8.19897, replicate values
[9] = log10[compound] (M) -8.69897, replicate values
[10] = log10[compound] (M) -9.19897, replicate values
[11] = log10[compound] (M) -9.69897, replicate values
[12] = log10[compound] (M) -10.199, replicate values

T1 sequence (P62942 2-108 F37V limits assumed): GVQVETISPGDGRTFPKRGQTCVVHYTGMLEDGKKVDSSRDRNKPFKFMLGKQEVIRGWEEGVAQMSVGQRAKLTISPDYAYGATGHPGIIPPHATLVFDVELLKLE

Row | Structure (SMILES) | TMT intensity per TMT channel ([1]; protein CDK12) | TMT intensity per TMT channel ([1]; protein INCENP) | TMT intensity per TMT channel ([1]; protein IRS2) | TMT intensity per TMT channel ([1]; protein SLC12A2) | TMT intensity per TMT channel ([1]; protein SLC15A4) | DMSO-normalized antiproliferation [2, 3] | DMSO-normalized antiproliferation [2, 4] | DMSO-normalized antiproliferation [2, 5] | DMSO-normalized antiproliferation [2, 6] | DMSO-normalized antiproliferation [2, 7] | DMSO-normalized antiproliferation [2, 8] | DMSO-normalized antiproliferation [2, 9] | DMSO-normalized antiproliferation [2, 10] | DMSO-normalized antiproliferation [2, 11] | DMSO-normalized antiproliferation [2, 12] | further results
1 | CC[C@H](C(=O)N1CCCC[C@H]1C(=O)O[C@H](CCc1ccc(OC)c(OC)c1)c1ccccc1OCC(=O)NCCCCCCOc1cccc2c1C(=O)N(C1CCC(=O)NC1=O)C2=O)c1cc(OC)c(OC)c(OC)c1 (stereo partly shown) [dTAG-13] | 2762.51 and 2603.47 | 2716.3 and 2681.24 | 372.779 and 399.852 | 1746.63 and 1711.2 | 223.037 and 230.942 | 79.0923 and 75.109 and 80.3774 and 113.638 | 118.691 and 93.7383 and 99.9076 and 98.4249 | 98.3156 and 96.4487 and 164.194 and 141.704 | 94.7264 and 123.324 and 123.729 and 139.928 | 115.53 and 113.276 and 121.811 and 92.6376 | 99.0586 and 98.4337 and 106.76 and 114.872 | 84.0085 and 109.147 and 95.5423 and 106.301 | 117.815 and 105.751 and 92.5029 and 116.86 | 127.696 and 110.786 and 93.8321 and 122.663 | 105.1 and 122.023 and 107.287 and 98.2283 | DMSO-normalized ratio of Nluc/Fluc signal (FKBP12^F36V-Nluc; log10[compound] (M) -5.30103, single replicates): 16.9532 and 13.2908 and 14.9671 and 13.7454; DMSO-normalized ratio of Nluc/Fluc signal (FKBP12^F36V-Nluc; log10[compound] (M) -5.80103, single replicates): 7.24 and 7.457 and 10.3426 and 8.644; DMSO-normalized ratio of Nluc/Fluc signal (FKBP12^F36V-Nluc; log10[compound] (M) -6.30103, single replicates): 8.366 and 8.818 and 6.862 and 6.126; DMSO-normalized ratio of Nluc/Fluc signal (FKBP12^F36V-Nluc; log10[compound] (M) -6.80103, single replicates): 7.33 and 5.168 and 6.329 and 6.447; DMSO-normalized ratio of Nluc/Fluc signal (FKBP12^F36V-Nluc; log10[compound] (M) -7.30103, single replicates): 10.0232 and 16.06 and 10.9144 and 8.614; DMSO-normalized ratio of Nluc/Fluc signal (FKBP12^F36V-Nluc; log10[compound] (M) -7.80103, single replicates): 17.0708 and 14.82 and 12.6407 and 10.0196; DMSO-normalized ratio of Nluc/Fluc signal (FKBP12^F36V-Nluc; log10[compound] (M) -8.30103, single replicates): 27.5948 and 22.2337 and 28.8782 and 22.7323; DMSO-normalized ratio of Nluc/Fluc signal (FKBP12^F36V-Nluc; log10[compound] (M) -8.80103, single replicates): 41.1668 and 39.5241 and 40.8834 and 34.8862; DMSO-normalized ratio of Nluc/Fluc signal (FKBP12^F36V-Nluc; log10[compound] (M) -9.30103, single replicates): 85.0231 and 74.0396 and 80.0349 and 60.0307; DMSO-normalized ratio of Nluc/Fluc signal (FKBP12^F36V-Nluc; log10[compound] (M) -9.80103, single replicates): 71.5411 and 59.8417 and 77.3242 and 60.4301
2 | CCC(C(=O)N1CCCCC1C(=O)OC(CCc1ccc(OC)c(OC)c1)c1ccccc1OCC(=O)NCCCCCCC(=O)NC(C(=O)N1CC(O)CC1C(=O)NC(C)c1ccc(-c2scnc2C)cc1)C(C)(C)C)c1cc(OC)c(OC)c(OC)c1 (stereo not shown) [dTAG^V-1-NEG] | 2630.52 and 3108.44 and 2718.26 | 2713.73 and 2977.66 and 2766.34 | 358.215 and 458.696 and 391.289 | 1702.64 and 1563.99 and 1824.49 | 247.423 and 199.538 and 213.085 | 11.5867 and 14.0973 and 18.4019 and 18.5068 | 63.5123 and 73.6517 and 63.5598 and 74.3207 | 93.1863 and 113.355 and 96.7633 and 104.117 | 100.081 and 106.556 and 105.951 and 130.27 | 138.495 and 100.848 and 147.738 and 83.6486 | 143.617 and 87.8737 and 136.886 and 159.708 | 153.483 and 88.4456 and 121.366 and 127.155 | 128.036 and 98.5375 and 110.326 and 91.7687 | 126.211 and 97.7702 and 97.5063 and 90.8491 | 118.887 and 87.4707 and 131.584 and 99.1889 | Degradation of FKBP12F36V-Nluc (in words) (FKBP12^F36V-Nluc; 293FT): no activity; log2 (Fold change) compared to DMSO ([1]; protein CRY1): -0.9118; log2 (Fold change) compared to DMSO ([1]; protein LITAF): -0.2196; log2 (Fold change) compared to DMSO ([1]; protein MPRIP): -0.5841; log2 (Fold change) compared to DMSO ([1]; protein RIOX1): 0.1069; log2 (Fold change) compared to DMSO ([1]; protein SGTA): 0.1473
